# Experimental data taken from patent US20100267561A1, “HERBICIDAL PYRIDAZINONE DERIVATIVES” (priority 2007, published 2010).
# Legend:
# Format in all cases: in vivo
# [1] = test system: barnyardgrass (Echinochloa crus-galli); experiment: Test B flooded paddy test plant response
# Method in brief: (§1)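 Compounds were added directly to paddy water over 2-leaf-stage plants in pots flooded 3 cm above soil, water depth maintained. Visual injury scored against controls after 13 to 15 days in greenhouse, 0 (none) to 100 (complete control); dash indicates no result.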
# [2] = test system: ducksalad (Heteranthera limosa); experiment: Test B flooded paddy test plant response
# Method in brief: as §1
# [3] = test system: umbrella sedge (Cyperus difformis); experiment: Test B flooded paddy test plant response
# Method in brief: as §1
# rice (Oryza sativa) = experiment: Test B flooded paddy test plant response
# Method in brief: as §1
# [4] = test system: downy bromegrass (Bromus tectorum); experiment: Test B pre-/postemergence plant response; conditions: for Bromegrass, Downy plant response rating: 8 g ai/ha
# Method in brief: (§2)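 Seeds were sown and sprayed preemergence, while plants at 2 to 18 cm (1- to 4-leaf stage) got postemergence sprays. Compounds were formulated in a non-phytotoxic solvent mixture with surfactant. After 13 to 15 days in a greenhouse, injury was rated visually against untreated controls, 0 (no effect) to 100 (complete control).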
# wild oat (Avena fatua) = experiment: Test B pre-/postemergence plant response; conditions: for Oat, Wild plant response rating: 8 g ai/ha
# Method in brief: as §2
# [5] = test system: cocklebur (Xanthium strumarium); experiment: Test B pre-/postemergence plant response; conditions: for Cocklebur plant response rating: 8 g ai/ha
# Method in brief: as §2
# [6] = test system: large crabgrass (Digitaria sanguinalis); experiment: Test B pre-/postemergence plant response; conditions: for Crabgrass, Large plant response rating: 8 g ai/ha
# Method in brief: as §2
# [7] = test system: woolly cupgrass (Eriochloa villosa); experiment: Test B pre-/postemergence plant response; conditions: for Cupgrass, Woolly plant response rating: 8 g ai/ha
# Method in brief: as §2
# [8] = test system: wheat (Triticum aestivum); experiment: Test B pre-/postemergence plant response; conditions: for Wheat plant response rating: 8 g ai/ha
# Method in brief: as §2
# soybean (Glycine max) = experiment: Test B pre-/postemergence plant response; conditions: for Soybean plant response rating: 8 g ai/ha
# Method in brief: as §2
# [9] = test system: velvetleaf (Abutilon theophrasti); experiment: Test B pre-/postemergence plant response; conditions: for Velvetleaf plant response rating: 8 g ai/ha
# Method in brief: as §2
# [10] = test system: bermudagrass (Cynodon dactylon); experiment: Test B pre-/postemergence plant response; conditions: for Bermudagrass plant response rating: 8 g ai/ha
# Method in brief: as §2
# [11] = test system: catchweed bedstraw (Galium aparine); experiment: Test B pre-/postemergence plant response; conditions: Preemergence
# Method in brief: as §2
# [12] = Flood (flooded paddy test), 62 g ai/ha, scale 0 to 100, 0 no effect, 100 complete control
# [13] = Flood (flooded paddy test), 125 g ai/ha, scale 0 to 100, 0 no effect, 100 complete control
# [14] = Flood, 31 g ai/ha, scale 0 to 100
# [15] = Postemergence, 16 g ai/ha, scale 0 to 100
# [16] = Postemergence, 31 g ai/ha, scale 0 to 100, 0 no effect, 100 complete control
# [17] = Postemergence, 62 g ai/ha, scale 0 to 100, 0 no effect, 100 complete control
# [18] = Preemergence, 16 g ai/ha, scale 0 to 100 (0 no effect, 100 complete control)
# [19] = Preemergence, 31 g ai/ha, 0 to 100 scale, 0 no effect, 100 complete control
# [20] = Preemergence, 62 g ai/ha, scale 0 to 100
compound,measurement,setting,value
Cc1cc(-c2ccc(Cl)cc2)nn1-c1c(OS(=O)(=O)c2ccccc2)cnn(C)c1=O [Compound 35],"Plant response rating, Barnyardgrass",[1]; [12],0
same,"Plant response rating, Barnyardgrass",[1]; [13],0
same,"Plant response rating, Barnyardgrass",[1]; [14],0
same,"Plant response rating, Ducksalad",[2]; [12],0
same,"Plant response rating, Ducksalad",[2]; [13],0
same,"Plant response rating, Ducksalad",[2]; [14],0
same,"Plant response rating, Sedge, Umbrella",[3]; [12],0
same,"Plant response rating, Sedge, Umbrella",[3]; [13],0
same,"Plant response rating, Sedge, Umbrella",[3]; [14],0
same,"Plant response rating, Rice",rice (Oryza sativa); [12],0
same,"Plant response rating, Rice",rice (Oryza sativa); [13],0
same,"Plant response rating, Rice",rice (Oryza sativa); [14],0
same,"Bromegrass, Downy plant response rating","[4]; postemergence, 0-100 scale",0
same,"Plant response rating, Bromegrass, Downy",[4]; [15],20
same,"Plant response rating, Bromegrass, Downy",[4]; [16],20
same,"Plant response rating, Bromegrass, Downy",[4]; [17],60
same,"Plant response rating, Bromegrass, Downy",[4]; [18],40
same,"Plant response rating, Bromegrass, Downy",[4]; [19],40
same,"Plant response rating, Bromegrass, Downy",[4]; [20],60
same,"Bromegrass, Downy plant response rating","[4]; Preemergence, scale 0 to 100",40
same,"Oat, Wild plant response rating","wild oat (Avena fatua); postemergence, 0-100 scale",50
same,"Plant response rating, Oat, Wild",wild oat (Avena fatua); [15],70
same,"Plant response rating, Oat, Wild",wild oat (Avena fatua); [16],85
same,"Plant response rating, Oat, Wild",wild oat (Avena fatua); [17],95
same,"Plant response rating, Oat, Wild",wild oat (Avena fatua); [19],80
same,"Plant response rating, Oat, Wild",wild oat (Avena fatua); [20],95
same,"Oat, Wild plant response rating","wild oat (Avena fatua); Preemergence, scale 0 to 100",0
same,Cocklebur plant response rating,"[5]; postemergence, 0-100 scale",0
same,"Plant response rating, Cocklebur",[5]; [15],0
same,"Plant response rating, Cocklebur",[5]; [16],0
same,"Plant response rating, Cocklebur",[5]; [17],0
same,"Plant response rating, Cocklebur",[5]; [18],0
same,"Plant response rating, Cocklebur",[5]; [19],0
same,"Plant response rating, Cocklebur",[5]; [20],0
same,Cocklebur plant response rating,"[5]; Preemergence, scale 0 to 100",0
same,"Crabgrass, Large plant response rating","[6]; postemergence, 0-100 scale",60
same,"Plant response rating, Crabgrass, Large",[6]; [15],70
same,"Plant response rating, Crabgrass, Large",[6]; [16],80
same,"Plant response rating, Crabgrass, Large",[6]; [17],100
same,"Plant response rating, Crabgrass, Large",[6]; [18],100
same,"Plant response rating, Crabgrass, Large",[6]; [19],100
same,"Plant response rating, Crabgrass, Large",[6]; [20],100
same,"Crabgrass, Large plant response rating","[6]; Preemergence, scale 0 to 100",90
same,"Cupgrass, Woolly plant response rating","[7]; postemergence, 0-100 scale",80
same,"Plant response rating, Cupgrass, Woolly",[7]; [15],95
same,"Plant response rating, Cupgrass, Woolly",[7]; [16],100
same,"Plant response rating, Cupgrass, Woolly",[7]; [17],100
same,"Plant response rating, Cupgrass, Woolly",[7]; [18],35
same,"Plant response rating, Cupgrass, Woolly",[7]; [19],100
same,"Plant response rating, Cupgrass, Woolly",[7]; [20],100
same,"Cupgrass, Woolly plant response rating","[7]; Preemergence, scale 0 to 100",35
same,Wheat plant response rating,"[8]; postemergence, 0-100 scale",0
same,"Plant response rating, Wheat",[8]; [15],35
same,"Plant response rating, Wheat",[8]; [17],85
same,"Plant response rating, Wheat",[8]; [18],0
same,"Plant response rating, Wheat",[8]; [19],0
same,"Plant response rating, Wheat",[8]; [20],30
same,Wheat plant response rating,"[8]; Preemergence, scale 0 to 100",0
same,Soybean plant response rating,"soybean (Glycine max); postemergence, 0-100 scale",0
same,"Plant response rating, Soybean",soybean (Glycine max); [15],0
same,"Plant response rating, Soybean",soybean (Glycine max); [17],0
same,"Plant response rating, Soybean",soybean (Glycine max); [18],0
same,"Plant response rating, Soybean",soybean (Glycine max); [19],0
same,"Plant response rating, Soybean",soybean (Glycine max); [20],0
same,Soybean plant response rating,"soybean (Glycine max); Preemergence, scale 0 to 100",0
same,Velvetleaf plant response rating,"[9]; postemergence, 0-100 scale",0
same,"Plant response rating, Velvetleaf",[9]; [15],0
same,"Plant response rating, Velvetleaf",[9]; [17],0
same,"Plant response rating, Velvetleaf",[9]; [18],0
same,"Plant response rating, Velvetleaf",[9]; [19],0
same,"Plant response rating, Velvetleaf",[9]; [20],0
same,Velvetleaf plant response rating,"[9]; Preemergence, scale 0 to 100",0
same,Bermudagrass plant response rating,"[10]; postemergence, 0-100 scale",40
same,"Plant response rating, Bermudagrass",[10]; [15],65
same,"Plant response rating, Bermudagrass",[10]; [16],100
same,"Plant response rating, Bermudagrass",[10]; [17],100
same,Bermudagrass plant response rating,"[10]; Preemergence, scale 0 to 100 (0 no effect, 100 complete control)",98
same,"Plant response rating, Bermudagrass",[10]; [18],98
same,"Plant response rating, Bermudagrass",[10]; [19],100
same,"Plant response rating, Bermudagrass",[10]; [20],100
same,"Plant response rating, Galium","[11]; 16 g ai/ha, scale 0 to 100 (0 no effect, 100 complete control)",0
same,"Plant response rating, Galium","[11]; 31 g ai/ha, 0 to 100 scale, 0 no effect, 100 complete control",0
same,"Plant response rating, Galium","[11]; 62 g ai/ha, scale 0 to 100",20
same,Galium plant response rating,"[11]; 8 g ai/ha, scale 0 to 100",0
